# Key:
# Format in all cases: functional
# Aspergillus niger [1] = assay: Antifungal activity against Aspergillus niger at 50 ug/ml after 72 hrs by agar well diffusion method
# Fusarium oxysporum [2] = assay: Antifungal activity against Fusarium oxysporum at 500 ug/ml after 72 hrs by agar well diffusion method
# Fusarium oxysporum [3] = assay: Antifungal activity against Fusarium oxysporum at 300 ug/ml after 72 hrs by agar well diffusion method
# Fusarium oxysporum [4] = assay: Antifungal activity against Fusarium oxysporum at 200 ug/ml after 72 hrs by agar well diffusion method
# Fusarium oxysporum [5] = assay: Antifungal activity against Fusarium oxysporum at 100 ug/ml after 72 hrs by agar well diffusion method
# Fusarium oxysporum [6] = assay: Antifungal activity against Fusarium oxysporum at 50 ug/ml after 72 hrs by agar well diffusion method
# Rhizoctonia solani [7] = assay: Antifungal activity against Rhizoctonia solani at 500 ug/ml after 72 hrs by agar well diffusion method
# Rhizoctonia solani [8] = assay: Antifungal activity against Rhizoctonia solani at 300 ug/ml after 72 hrs by agar well diffusion method
# Rhizoctonia solani [9] = assay: Antifungal activity against Rhizoctonia solani at 200 ug/ml after 72 hrs by agar well diffusion method
# Rhizoctonia solani [10] = assay: Antifungal activity against Rhizoctonia solani at 100 ug/ml after 72 hrs by agar well diffusion method
# Rhizoctonia solani [11] = assay: Antifungal activity against Rhizoctonia solani at 50 ug/ml after 72 hrs by agar well diffusion method
# Bacillus subtilis [12] = assay: Antibacterial activity against Bacillus subtilis at 500 ug/ml after 24 hrs by agar well diffusion method; details: read-out: DIZ
# Bacillus subtilis [13] = assay: Antibacterial activity against Bacillus subtilis at 300 ug/ml after 24 hrs by agar well diffusion method; details: read-out: DIZ
# Bacillus subtilis [14] = assay: Antibacterial activity against Bacillus subtilis at 200 ug/ml after 24 hrs by agar well diffusion method; details: read-out: DIZ
# Bacillus subtilis [15] = assay: Antibacterial activity against Bacillus subtilis at 100 ug/ml after 24 hrs by agar well diffusion method; details: read-out: DIZ
# Bacillus subtilis [16] = assay: Antibacterial activity against Bacillus subtilis at 50 ug/ml after 24 hrs by agar well diffusion method; details: read-out: DIZ
# Staphylococcus aureus [17] = assay: Antibacterial activity against Staphylococcus aureus ATCC 6538 at 500 ug/ml after 24 hrs by agar well diffusion method; details: ATCC 6538, 24 h, read-out: DIZ
# Staphylococcus aureus [18] = assay: Antibacterial activity against Staphylococcus aureus ATCC 6538 at 300 ug/ml after 24 hrs by agar well diffusion method; details: ATCC 6538, 24 h, read-out: DIZ
# Staphylococcus aureus [19] = assay: Antibacterial activity against Staphylococcus aureus ATCC 6538 at 200 ug/ml after 24 hrs by agar well diffusion method; details: ATCC 6538, 24 h, read-out: DIZ
# Staphylococcus aureus [20] = assay: Antibacterial activity against Staphylococcus aureus ATCC 6538 at 100 ug/ml after 24 hrs by agar well diffusion method; details: ATCC 6538, 24 h, read-out: DIZ
# Escherichia coli [21] = assay: Antibacterial activity against Escherichia coli ATCC 8739 at 300 ug/ml after 24 hrs by agar well diffusion method; details: ATCC 8739, 24 h, read-out: DIZ
# Escherichia coli [22] = assay: Antibacterial activity against Escherichia coli ATCC 8739 at 200 ug/ml after 24 hrs by agar well diffusion method; details: ATCC 8739, 24 h, read-out: DIZ
# Escherichia coli [23] = assay: Antibacterial activity against Escherichia coli ATCC 8739 at 100 ug/ml after 24 hrs by agar well diffusion method; details: ATCC 8739, 24 h, read-out: DIZ
# Escherichia coli [24] = assay: Antibacterial activity against Escherichia coli ATCC 8739 at 50 ug/ml after 24 hrs by agar well diffusion method; details: ATCC 8739, 24 h, read-out: DIZ
# Klebsiella pneumoniae [25] = assay: Antibacterial activity against Klebsiella pneumoniae at 500 ug/ml after 24 hrs by agar well diffusion method; details: read-out: DIZ
# Klebsiella pneumoniae [26] = assay: Antibacterial activity against Klebsiella pneumoniae at 300 ug/ml after 24 hrs by agar well diffusion method; details: read-out: DIZ
# Klebsiella pneumoniae [27] = assay: Antibacterial activity against Klebsiella pneumoniae at 200 ug/ml after 24 hrs by agar well diffusion method; details: read-out: DIZ
# Klebsiella pneumoniae [28] = assay: Antibacterial activity against Klebsiella pneumoniae at 50 ug/ml after 24 hrs by agar well diffusion method; details: read-out: DIZ
# Escherichia coli [29] = assay: Antibacterial activity against Escherichia coli ATCC 8739 at 500 ug/ml after 24 hrs by agar well diffusion method; details: ATCC 8739, 24 h, read-out: DIZ
# Klebsiella pneumoniae [30] = assay: Antibacterial activity against Klebsiella pneumoniae at 100 ug/ml after 24 hrs by agar well diffusion method; details: read-out: DIZ
# Staphylococcus aureus [31] = assay: Antibacterial activity against Staphylococcus aureus ATCC 6538 at 50 ug/ml after 24 hrs by agar well diffusion method; details: ATCC 6538, 24 h, read-out: DIZ
# Aspergillus flavus [32] = assay: Antifungal activity against Aspergillus flavus at 50 ug/ml after 72 hrs by agar well diffusion method
# Aspergillus flavus [33] = assay: Antifungal activity against Aspergillus flavus at 100 ug/ml after 72 hrs by agar well diffusion method
# Aspergillus flavus [34] = assay: Antifungal activity against Aspergillus flavus after 72 hrs by agar well diffusion method
# Aspergillus niger [35] = assay: Antifungal activity against Aspergillus niger after 72 hrs by agar well diffusion method
# Fusarium oxysporum [36] = assay: Antifungal activity against Fusarium oxysporum after 72 hrs by agar well diffusion method
# Rhizoctonia solani [37] = assay: Antifungal activity against Rhizoctonia solani after 72 hrs by agar well diffusion method
# Bacillus subtilis [38] = assay: Antibacterial activity against Bacillus subtilis after 24 hrs by agar well diffusion method
# Staphylococcus aureus [39] = assay: Antibacterial activity against Staphylococcus aureus ATCC 6538 after 24 hrs by agar well diffusion method; details: ATCC 6538, 24 h
# Escherichia coli [40] = assay: Antibacterial activity against Escherichia coli ATCC 8739 after 24 hrs by agar well diffusion method; details: ATCC 8739, 24 h
# Klebsiella pneumoniae [41] = assay: Antibacterial activity against Klebsiella pneumoniae after 24 hrs by agar well diffusion method
# Aspergillus flavus [42] = assay: Antifungal activity against Aspergillus flavus at 500 ug/ml after 72 hrs by agar well diffusion method
# Aspergillus flavus [43] = assay: Antifungal activity against Aspergillus flavus at 300 ug/ml after 72 hrs by agar well diffusion method
# Aspergillus flavus [44] = assay: Antifungal activity against Aspergillus flavus at 200 ug/ml after 72 hrs by agar well diffusion method
# Aspergillus niger [45] = assay: Antifungal activity against Aspergillus niger at 500 ug/ml after 72 hrs by agar well diffusion method
# Aspergillus niger [46] = assay: Antifungal activity against Aspergillus niger at 300 ug/ml after 72 hrs by agar well diffusion method
# Aspergillus niger [47] = assay: Antifungal activity against Aspergillus niger at 200 ug/ml after 72 hrs by agar well diffusion method
# Aspergillus niger [48] = assay: Antifungal activity against Aspergillus niger at 100 ug/ml after 72 hrs by agar well diffusion method
molecule,measurement,setting,value
Cn1cc(C=C2C(=O)OC(C)(C)OC2=O)c2cc(Br)ccc21,zone of inhibition at 50 µg/mL,Aspergillus niger [1]; read-out: DIZ,6 mm
same,zone of inhibition at 500 µg/mL,Fusarium oxysporum [2]; read-out: DIZ,29 mm
same,zone of inhibition at 300 µg/mL,Fusarium oxysporum [3]; read-out: DIZ,21 mm
same,zone of inhibition at 200 µg/mL,Fusarium oxysporum [4]; read-out: DIZ,16 mm
same,zone of inhibition at 100 µg/mL,Fusarium oxysporum [5]; read-out: DIZ,12 mm
same,zone of inhibition at 50 µg/mL,Fusarium oxysporum [6]; read-out: DIZ,7 mm
same,zone of inhibition at 500 µg/mL,Rhizoctonia solani [7]; read-out: DIZ,29 mm
same,zone of inhibition at 300 µg/mL,Rhizoctonia solani [8]; read-out: DIZ,21 mm
same,zone of inhibition at 200 µg/mL,Rhizoctonia solani [9]; read-out: DIZ,16 mm
same,zone of inhibition at 100 µg/mL,Rhizoctonia solani [10]; read-out: DIZ,12 mm
same,zone of inhibition at 50 µg/mL,Rhizoctonia solani [11]; read-out: DIZ,7 mm
same,zone of inhibition at 500 µg/mL,Bacillus subtilis [12],23 mm
same,zone of inhibition at 300 µg/mL,Bacillus subtilis [13],15 mm
same,zone of inhibition at 200 µg/mL,Bacillus subtilis [14],11 mm
same,zone of inhibition at 100 µg/mL,Bacillus subtilis [15],9.5 mm
same,zone of inhibition at 50 µg/mL,Bacillus subtilis [16],5 mm
same,zone of inhibition at 500 µg/mL,Staphylococcus aureus [17],25 mm
same,zone of inhibition at 300 µg/mL,Staphylococcus aureus [18],17 mm
same,zone of inhibition at 200 µg/mL,Staphylococcus aureus [19],13 mm
same,zone of inhibition at 100 µg/mL,Staphylococcus aureus [20],10 mm
same,zone of inhibition at 300 µg/mL,Escherichia coli [21],21 mm
same,zone of inhibition at 200 µg/mL,Escherichia coli [22],14 mm
same,zone of inhibition at 100 µg/mL,Escherichia coli [23],13.5 mm
same,zone of inhibition at 50 µg/mL,Escherichia coli [24],8.4 mm
same,zone of inhibition at 500 µg/mL,Klebsiella pneumoniae [25],32 mm
same,zone of inhibition at 300 µg/mL,Klebsiella pneumoniae [26],23 mm
same,zone of inhibition at 200 µg/mL,Klebsiella pneumoniae [27],18 mm
same,zone of inhibition at 50 µg/mL,Klebsiella pneumoniae [28],9 mm
same,zone of inhibition at 500 µg/mL,Escherichia coli [29],30 mm
same,zone of inhibition at 100 µg/mL,Klebsiella pneumoniae [30],14 mm
same,zone of inhibition at 50 µg/mL,Staphylococcus aureus [31],6 mm
same,zone of inhibition at 50 µg/mL,Aspergillus flavus [32]; read-out: DIZ,4 mm
same,zone of inhibition at 100 µg/mL,Aspergillus flavus [33]; read-out: DIZ,9 mm
same,MIC,Aspergillus flavus [34],40 µg/mL
same,MIC,Aspergillus niger [35],40 µg/mL
same,MIC,Fusarium oxysporum [36],35 µg/mL
same,MIC,Rhizoctonia solani [37],35 µg/mL
same,MIC,Bacillus subtilis [38],30 µg/mL
same,MIC,Staphylococcus aureus [39],25 µg/mL
same,MIC,Escherichia coli [40],15 µg/mL
same,MIC,Klebsiella pneumoniae [41],15 µg/mL
same,zone of inhibition at 500 µg/mL,Aspergillus flavus [42]; read-out: DIZ,23 mm
same,zone of inhibition at 300 µg/mL,Aspergillus flavus [43]; read-out: DIZ,15 mm
same,zone of inhibition at 200 µg/mL,Aspergillus flavus [44]; read-out: DIZ,12 mm
same,zone of inhibition at 500 µg/mL,Aspergillus niger [45]; read-out: DIZ,25 mm
same,zone of inhibition at 300 µg/mL,Aspergillus niger [46]; read-out: DIZ,18 mm
same,zone of inhibition at 200 µg/mL,Aspergillus niger [47]; read-out: DIZ,14 mm
same,zone of inhibition at 100 µg/mL,Aspergillus niger [48]; read-out: DIZ,10 mm
NYSTATIN,inhibition zone (IZ),Aspergillus niger [1],11.2 mm
same,inhibition zone (IZ),Fusarium oxysporum [2],37 mm
same,inhibition zone (IZ),Fusarium oxysporum [3],29 mm
same,inhibition zone (IZ),Fusarium oxysporum [4],21 mm
same,inhibition zone (IZ),Fusarium oxysporum [5],18 mm
same,inhibition zone (IZ),Fusarium oxysporum [6],15 mm
same,inhibition zone (IZ),Rhizoctonia solani [7],38 mm
same,inhibition zone (IZ),Rhizoctonia solani [8],30 mm
same,inhibition zone (IZ),Rhizoctonia solani [9],22 mm
same,inhibition zone (IZ),Rhizoctonia solani [10],20 mm
same,inhibition zone (IZ),Rhizoctonia solani [11],16 mm
same,inhibition zone (IZ),Aspergillus flavus [32],11 mm
same,inhibition zone (IZ),Aspergillus flavus [33],13 mm
same,MIC,Aspergillus flavus [34],20 µg/mL
same,MIC,Aspergillus niger [35],20 µg/mL
same,MIC,Fusarium oxysporum [36],15 µg/mL
same,MIC,Rhizoctonia solani [37],15 µg/mL
same,inhibition zone (IZ),Aspergillus flavus [42],32 mm
same,inhibition zone (IZ),Aspergillus flavus [43],22 mm
same,inhibition zone (IZ),Aspergillus flavus [44],16 mm
same,inhibition zone (IZ),Aspergillus niger [45],34 mm
same,inhibition zone (IZ),Aspergillus niger [46],23 mm
same,inhibition zone (IZ),Aspergillus niger [47],16.6 mm
same,inhibition zone (IZ),Aspergillus niger [48],14 mm
CN[C@@H]1[C@H](O[C@H]2[C@H](O[C@H]3[C@H](O)[C@@H](O)[C@H](N=C(N)N)[C@@H](O)[C@@H]3N=C(N)N)O[C@@H](C)[C@]2(O)C=O)O[C@@H](CO)[C@H](O)[C@H]1O [STREPTOMYCIN],zone of inhibition at 500 µg/mL,Bacillus subtilis [12],28 mm
same,zone of inhibition at 300 µg/mL,Bacillus subtilis [13],20 mm
same,zone of inhibition at 200 µg/mL,Bacillus subtilis [14],17 mm
same,zone of inhibition at 100 µg/mL,Bacillus subtilis [15],14 mm
same,zone of inhibition at 50 µg/mL,Bacillus subtilis [16],9 mm
same,zone of inhibition at 500 µg/mL,Staphylococcus aureus [17],31 mm
same,zone of inhibition at 300 µg/mL,Staphylococcus aureus [18],22 mm
same,zone of inhibition at 200 µg/mL,Staphylococcus aureus [19],19 mm
same,zone of inhibition at 100 µg/mL,Staphylococcus aureus [20],15 mm
same,zone of inhibition at 300 µg/mL,Escherichia coli [21],26 mm
same,zone of inhibition at 200 µg/mL,Escherichia coli [22],23 mm
same,zone of inhibition at 100 µg/mL,Escherichia coli [23],17 mm
same,zone of inhibition at 50 µg/mL,Escherichia coli [24],12 mm
same,zone of inhibition at 500 µg/mL,Klebsiella pneumoniae [25],37 mm
same,zone of inhibition at 300 µg/mL,Klebsiella pneumoniae [26],28 mm
same,zone of inhibition at 200 µg/mL,Klebsiella pneumoniae [27],24 mm
same,zone of inhibition at 50 µg/mL,Klebsiella pneumoniae [28],13 mm
same,zone of inhibition at 500 µg/mL,Escherichia coli [29],36 mm
same,zone of inhibition at 100 µg/mL,Klebsiella pneumoniae [30],18 mm
same,zone of inhibition at 50 µg/mL,Staphylococcus aureus [31],10 mm
same,MIC,Bacillus subtilis [38],20 µg/mL
same,MIC,Staphylococcus aureus [39],10 µg/mL
same,MIC,Escherichia coli [40],5 µg/mL
same,MIC,Klebsiella pneumoniae [41],5 µg/mL
